Structures can show the parent of a compound that is named as a salt. Calls of active or inactive are those of the source.
Columns and labels:
[1] = OVCAR-3 cell viability loss – plate reader, dry powder samples, PAX8 inhibitor project, dose response (AID 743044); format: functional, cell-based
[2] = biological target: Paired box protein Pax-8 (Homo sapiens, UniProt Q06710); assay: PAX8 transcriptional activity inhibition in RMG-I – RMG-I cells, luciferase, cherry-pick, dose response (AID 687027); format: functional, cell-based;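 note: luciferase reporter driven by Pax8 target thyroperoxidase promoter measured by SteadyGlo luminescence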
[3] = IGROV1 cell killing – plate reader, dry powder samples, PAX8 inhibitor project, dose response (AID 743043); format: functional, cell-based; settings: IGROV-1
[4] = OVCAR8 cell viability loss – plate reader, dry powder samples, PAX8 project, dose response (AID 743197); format: functional, cell-based; settings: OVCAR-8
[5] = biological target: T1, Sentrin-specific protease 1 (Homo sapiens, UniProt Q9P0U3); assay: SENP1 catalytic domain blockers, concentration series – biochemical, kinetic FRET, dose response (AID 651697); format: functional; settings: read-out: IC50_Mean
T1 sequence (Q9P0U3 whole entry): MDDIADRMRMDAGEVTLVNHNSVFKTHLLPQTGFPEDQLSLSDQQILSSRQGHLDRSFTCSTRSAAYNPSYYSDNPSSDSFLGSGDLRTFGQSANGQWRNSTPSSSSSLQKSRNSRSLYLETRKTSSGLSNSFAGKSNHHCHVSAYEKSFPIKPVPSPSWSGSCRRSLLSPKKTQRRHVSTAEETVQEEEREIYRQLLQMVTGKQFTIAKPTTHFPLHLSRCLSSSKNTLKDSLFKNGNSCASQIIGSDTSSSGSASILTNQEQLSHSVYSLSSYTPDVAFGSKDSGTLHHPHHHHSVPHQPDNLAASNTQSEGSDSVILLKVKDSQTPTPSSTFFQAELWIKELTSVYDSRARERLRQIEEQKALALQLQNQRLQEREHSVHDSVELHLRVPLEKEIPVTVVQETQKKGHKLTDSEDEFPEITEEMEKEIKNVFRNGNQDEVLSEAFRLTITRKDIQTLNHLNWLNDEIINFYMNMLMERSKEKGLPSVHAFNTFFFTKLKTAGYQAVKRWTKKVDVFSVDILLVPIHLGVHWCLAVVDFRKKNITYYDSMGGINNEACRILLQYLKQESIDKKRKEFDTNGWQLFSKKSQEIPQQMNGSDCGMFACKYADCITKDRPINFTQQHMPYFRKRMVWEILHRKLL

[6] = biological target: T1, Sentrin-specific protease 1; assay: Dose response confirmation of small molecule inhibitors of the catalytic domain of the SUMO protease, SENP1 in a FRET assay.; format: functional; settings: read-out: IC50_Mean
[7] = biological target: T2, Leucine aminopeptidase (Plasmodium falciparum 3D7, UniProt Q8IL11); assay: P. falciparum M17LAP inhibitors, primary screen, biochemical, fluorogenic H-Leu-NHMec substrate, 1536-well (AID 1619); format: functional
T2 sequence (Q8IL11 whole entry): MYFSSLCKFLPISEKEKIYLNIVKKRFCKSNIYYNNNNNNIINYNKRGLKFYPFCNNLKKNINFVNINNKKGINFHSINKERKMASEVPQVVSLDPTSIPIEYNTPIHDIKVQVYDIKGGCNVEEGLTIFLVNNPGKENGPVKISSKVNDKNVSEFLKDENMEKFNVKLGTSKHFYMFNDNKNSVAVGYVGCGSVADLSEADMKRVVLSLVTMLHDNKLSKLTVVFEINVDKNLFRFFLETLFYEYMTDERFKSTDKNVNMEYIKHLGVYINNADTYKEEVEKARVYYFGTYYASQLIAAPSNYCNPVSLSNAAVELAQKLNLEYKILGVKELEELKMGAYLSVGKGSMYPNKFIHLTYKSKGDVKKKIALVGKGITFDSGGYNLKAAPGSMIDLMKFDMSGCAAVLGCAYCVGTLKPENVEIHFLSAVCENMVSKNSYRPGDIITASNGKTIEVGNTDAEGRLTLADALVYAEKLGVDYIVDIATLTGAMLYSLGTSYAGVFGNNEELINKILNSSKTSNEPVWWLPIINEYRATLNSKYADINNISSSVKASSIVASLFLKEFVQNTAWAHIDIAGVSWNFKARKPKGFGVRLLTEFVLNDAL

[8] = biological target: T3, Replicative DNA helicase DnaB (Mycobacterium tuberculosis, UniProt P9WMR3); assay: DnaB intein splicing inhibitors, dose response, biochemical, cell-free fluorescence (AID 449749); format: functional
T3 sequence (P9WMR3 whole entry): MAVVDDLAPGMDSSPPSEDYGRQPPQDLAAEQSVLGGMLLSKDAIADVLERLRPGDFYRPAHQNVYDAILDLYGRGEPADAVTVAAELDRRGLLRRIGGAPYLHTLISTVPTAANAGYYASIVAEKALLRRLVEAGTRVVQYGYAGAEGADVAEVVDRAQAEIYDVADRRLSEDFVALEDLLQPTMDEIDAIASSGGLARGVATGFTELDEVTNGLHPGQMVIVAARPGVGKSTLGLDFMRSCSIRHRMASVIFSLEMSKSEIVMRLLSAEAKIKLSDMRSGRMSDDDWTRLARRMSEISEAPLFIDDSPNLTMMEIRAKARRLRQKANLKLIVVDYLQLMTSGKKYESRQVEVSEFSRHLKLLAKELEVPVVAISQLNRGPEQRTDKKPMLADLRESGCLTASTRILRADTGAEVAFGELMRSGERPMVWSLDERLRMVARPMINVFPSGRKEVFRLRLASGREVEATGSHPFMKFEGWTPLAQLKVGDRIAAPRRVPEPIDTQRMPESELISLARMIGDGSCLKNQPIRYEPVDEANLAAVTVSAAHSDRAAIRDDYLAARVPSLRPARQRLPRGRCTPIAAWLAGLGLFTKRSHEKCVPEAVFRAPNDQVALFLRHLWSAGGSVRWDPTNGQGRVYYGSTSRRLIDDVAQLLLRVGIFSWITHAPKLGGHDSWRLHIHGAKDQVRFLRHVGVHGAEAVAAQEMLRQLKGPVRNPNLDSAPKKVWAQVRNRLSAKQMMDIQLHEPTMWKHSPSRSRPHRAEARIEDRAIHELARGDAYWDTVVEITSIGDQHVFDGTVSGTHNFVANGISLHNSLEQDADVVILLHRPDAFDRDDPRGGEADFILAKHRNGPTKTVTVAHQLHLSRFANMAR

[9] = biological target: Genome polyprotein (dengue virus type 2, UniProt P29990); assay: flavivirus cap methylation enzyme inhibition – biochemical, confirmation dose response, primary screen (AID 588689); format: functional
[10] = biological target: T4, Protein RecA (Mycobacterium tuberculosis, UniProt P9WHJ3); assay: Fluorescence Cell-Free Homogeneous Dose Retest to Identify Inhibitors of RecA-Intein Splicing Activity. [Related pubchem assays (depositor defined):AID2097, AID2223, AID489010, AID492950]; format: functional
T4 sequence (P9WHJ3 whole entry): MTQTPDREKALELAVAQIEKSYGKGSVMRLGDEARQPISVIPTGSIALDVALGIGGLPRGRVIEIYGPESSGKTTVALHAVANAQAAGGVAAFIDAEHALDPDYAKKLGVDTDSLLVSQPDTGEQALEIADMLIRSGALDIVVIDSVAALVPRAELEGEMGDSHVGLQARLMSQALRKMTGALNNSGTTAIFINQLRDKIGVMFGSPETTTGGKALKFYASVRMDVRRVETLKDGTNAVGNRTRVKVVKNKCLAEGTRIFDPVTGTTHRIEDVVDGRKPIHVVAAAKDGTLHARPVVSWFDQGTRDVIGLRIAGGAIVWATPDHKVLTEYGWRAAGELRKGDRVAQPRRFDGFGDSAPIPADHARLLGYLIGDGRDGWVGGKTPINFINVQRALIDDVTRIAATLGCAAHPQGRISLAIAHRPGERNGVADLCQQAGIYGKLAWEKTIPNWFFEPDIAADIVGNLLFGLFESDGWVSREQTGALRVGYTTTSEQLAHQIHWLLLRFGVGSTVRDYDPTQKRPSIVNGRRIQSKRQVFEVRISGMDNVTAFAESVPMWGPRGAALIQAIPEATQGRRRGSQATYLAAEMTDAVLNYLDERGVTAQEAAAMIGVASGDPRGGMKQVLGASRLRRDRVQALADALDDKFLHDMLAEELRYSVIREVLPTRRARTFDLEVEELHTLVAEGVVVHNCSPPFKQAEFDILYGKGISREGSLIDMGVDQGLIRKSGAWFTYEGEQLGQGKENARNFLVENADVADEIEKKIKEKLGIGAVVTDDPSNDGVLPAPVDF

[11] = Luminescence Cell-Based Dose Retest to Confirm Inhibitors of Cancer Stem Cells. [Related pubchem assays (depositor defined):AID2717, AID2721]; format: functional; settings: Homo sapiens
[12] = viability of uninfected HEp-2 cells – cell-based, HTS, cytotoxicity control for RSV inhibitor project, dose response (AID 2410); format: functional; settings: human respiratory syncytial virus
[13] = biological target: T5, Polyadenylate-binding protein 1 (Homo sapiens, UniProt P11940); assay: MLLE binding blockers, Cy5 peptide tracer – biochemical, fluorescence polarization, Cy5-PAM2 peptide, secondary, miRNA deadenylation inhibitor project, dose response (AID 602260); format: functional; settings: read-out: IC50_Mean
[14] = biological target: T5, Polyadenylate-binding protein 1; assay: MLLE domain peptide-binding blockers, IC50 – biochemical, fluorescence polarization, FITC-PAM2 peptide, dose response (AID 602259); format: functional; settings: read-out: IC50_Mean

Sequence of Paired box protein Pax-8 (Q06710 whole entry): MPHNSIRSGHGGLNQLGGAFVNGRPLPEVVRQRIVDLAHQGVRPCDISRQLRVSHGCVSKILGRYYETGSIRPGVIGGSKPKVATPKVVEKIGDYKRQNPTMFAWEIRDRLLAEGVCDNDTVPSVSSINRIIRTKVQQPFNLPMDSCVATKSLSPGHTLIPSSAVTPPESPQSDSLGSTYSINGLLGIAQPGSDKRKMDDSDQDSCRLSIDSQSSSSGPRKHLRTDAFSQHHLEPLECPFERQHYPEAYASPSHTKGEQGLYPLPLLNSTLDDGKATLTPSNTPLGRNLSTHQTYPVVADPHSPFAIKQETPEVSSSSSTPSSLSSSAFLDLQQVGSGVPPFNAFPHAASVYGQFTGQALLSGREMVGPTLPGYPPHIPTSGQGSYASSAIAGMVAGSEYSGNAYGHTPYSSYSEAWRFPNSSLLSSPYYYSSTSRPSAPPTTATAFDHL
T5 sequence (P11940 whole entry, the tested form may be a part): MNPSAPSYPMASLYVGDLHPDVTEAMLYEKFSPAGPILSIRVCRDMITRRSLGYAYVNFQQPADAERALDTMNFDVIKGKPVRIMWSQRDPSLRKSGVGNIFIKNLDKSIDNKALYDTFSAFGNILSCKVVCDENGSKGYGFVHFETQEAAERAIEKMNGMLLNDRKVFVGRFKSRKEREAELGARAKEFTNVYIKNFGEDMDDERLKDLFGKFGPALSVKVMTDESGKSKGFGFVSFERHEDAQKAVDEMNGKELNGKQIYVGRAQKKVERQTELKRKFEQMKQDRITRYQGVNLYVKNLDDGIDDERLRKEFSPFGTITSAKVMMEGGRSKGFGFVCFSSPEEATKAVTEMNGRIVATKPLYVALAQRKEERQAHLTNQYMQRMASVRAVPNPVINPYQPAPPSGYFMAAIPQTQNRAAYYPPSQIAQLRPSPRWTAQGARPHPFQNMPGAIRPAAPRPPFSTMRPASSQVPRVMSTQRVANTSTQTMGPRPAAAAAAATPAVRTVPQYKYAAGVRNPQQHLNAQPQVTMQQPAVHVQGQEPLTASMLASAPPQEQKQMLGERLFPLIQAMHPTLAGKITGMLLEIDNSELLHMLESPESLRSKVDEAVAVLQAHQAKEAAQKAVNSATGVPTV
Sequence of Genome polyprotein (P29990 2492-3391 limits assumed): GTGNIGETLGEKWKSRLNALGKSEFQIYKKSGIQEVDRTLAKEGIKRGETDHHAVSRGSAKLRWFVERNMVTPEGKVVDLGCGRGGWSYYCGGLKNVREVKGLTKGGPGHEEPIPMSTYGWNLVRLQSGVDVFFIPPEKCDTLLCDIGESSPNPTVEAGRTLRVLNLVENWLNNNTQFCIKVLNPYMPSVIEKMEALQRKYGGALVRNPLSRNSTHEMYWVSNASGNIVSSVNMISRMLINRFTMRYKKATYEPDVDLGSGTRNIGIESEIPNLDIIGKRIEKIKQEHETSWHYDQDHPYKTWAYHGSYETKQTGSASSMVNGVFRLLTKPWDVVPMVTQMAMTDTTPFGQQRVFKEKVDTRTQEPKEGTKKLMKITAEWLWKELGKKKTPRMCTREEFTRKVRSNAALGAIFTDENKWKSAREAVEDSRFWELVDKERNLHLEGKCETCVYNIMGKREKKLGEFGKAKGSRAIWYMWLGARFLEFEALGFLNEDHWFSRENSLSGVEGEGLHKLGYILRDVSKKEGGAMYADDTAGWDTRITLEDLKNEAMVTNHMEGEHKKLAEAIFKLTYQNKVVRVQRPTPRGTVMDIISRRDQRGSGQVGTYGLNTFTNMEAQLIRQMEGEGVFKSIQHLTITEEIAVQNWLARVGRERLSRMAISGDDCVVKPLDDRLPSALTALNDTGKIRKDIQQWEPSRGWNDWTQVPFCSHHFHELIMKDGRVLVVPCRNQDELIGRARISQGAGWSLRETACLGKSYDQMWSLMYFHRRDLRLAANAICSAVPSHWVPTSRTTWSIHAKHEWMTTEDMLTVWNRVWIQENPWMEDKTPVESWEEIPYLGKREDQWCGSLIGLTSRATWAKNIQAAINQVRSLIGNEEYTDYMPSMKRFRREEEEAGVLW

Compound: O=C(Nc1cccc(F)c1)N1CCCCN2[C@@H](CO)[C@@H](c3ccc(-c4ccccc4F)cc3)[C@@H]2C1
- AC50 [1]: 37.6 µM (active)
- AC50 [2]: 21.1 µM (active)
- AC50 [3]: 26.9 µM (active)

Compound: C[C@@H]1CN([C@H](C)CO)S(=O)(=O)c2ccc(C#Cc3cccc(F)c3)cc2O[C@@H]1CN(C)C(=O)NC1CCCCC1
- AC50 [1]: 42.1 µM (active)
- AC50 [4]: 33.6 µM (active)
- AC50 [2]: 8.38 µM (active)

Compound: C[C@H]1CN([C@@H](C)CO)C(=O)c2c(c3ccccc3n2C)-c2ccccc2CO[C@@H]1CN(C)Cc1cccc(C(F)(F)F)c1
- AC50 [4]: 43.7 µM (active)
- AC50 [2]: 9.89 µM (active)
- AC50 [3]: 53 µM (active)

Compound: COc1ccc(C2C(C(C)=O)=C(C)N=c3s/c(=C\c4ccco4)c(=O)n32)c(OC)c1 (centres undefined)
- IC50 [5]: 24.9 µM (inactive)
- IC50 [6]: 20.2 µM (inactive)

Compound: C/C(CCC1CC(C)OC1=O)=N/Nc1nc(-c2ccccc2)cs1 (centres undefined)
- IC50 [7]: 30.8 µM (active)

Compound: Cc1ccc(-c2ccc(/C=N/NC3=NC(=O)C(CC(=O)O)S3)o2)c([N+](=O)[O-])c1 (centres undefined)
- AC50 [8]: 26.5 µM (active)
- IC50 [9]: 88.6 µM (active)
- IC50 [7]: 101 µM (active)
- EC50 [10]: 10.5 µM (active)

Compound: CN(C)c1ccc(/C=N/NC(=O)/C(O)=C\C2=NC3(CCCC3)Cc3ccccc32)cc1
- IC50 [5]: 10.1 µM (active)
- IC50 [6]: 13.2 µM (active)
- AC50 [11]: 3.54 µM (active)
- CC50 [12]: 25.8 µM (active)

Compound: CN1Cc2c(N)cccc2C(c2ccccc2)C1 (centres undefined) [NOMIFENSINE MALEATE]
- IC50 [5]: 8.36 µM (active)
- IC50 [6]: 8.71 µM (active)
- IC50 [13]: > 66 µM (inactive)
- IC50 [14]: > 66 µM (inactive)
